{"source": "ChEMBL document CHEMBL5537143", "about": "“Synthesis and antimicrobial properties of guanidine-functionalized labdane type diterpenoids” (Eur J Med Chem, 2024)", "type_in_all_cases": "functional", "key": {"[1]": {"test_system": "Klebsiella pneumoniae", "assay": "Antimicrobial activity against Klebsiella pneumoniae ATCC 13883 assessed as inhibition of microbial growth incubated for 24 hrs by broth-microdilution assay", "details": "read-out: MIC100"}, "[2]": {"test_system": "Pseudomonas aeruginosa", "assay": "Antimicrobial activity against Pseudomonas aeruginosa PAO1 assessed as inhibition of microbial growth incubated for 24 hrs by broth-microdilution assay", "details": "Pseudomonas aeruginosa, PAO1, read-out: MIC100"}, "[3]": {"test_system": "Pseudomonas aeruginosa", "assay": "Antimicrobial activity against Pseudomonas aeruginosa ATCC 27853 assessed as inhibition of microbial growth incubated for 24 hrs by broth-microdilution assay", "details": "Pseudomonas aeruginosa, ATCC 27853, read-out: MIC100"}, "[4]": {"test_system": "Candida albicans", "assay": "Antifungal activity against Candida albicans ATCC 90028 assessed as reduction in fungal growth incubated for 48 hrs by CLSI based analysis", "details": "read-out: MIC100"}, "[5]": {"test_system": "Candida albicans", "assay": "Antifungal activity against Candida albicans ATCC 10231 assessed as reduction in fungal growth incubated for 48 hrs by CLSI based analysis", "details": "read-out: MIC100"}, "[6]": {"test_system": "Staphylococcus aureus", "assay": "Antimicrobial activity against Staphylococcus aureus ATCC 29213 assessed as inhibition of microbial growth incubated for 24 hrs by broth-microdilution assay", "details": "Staphylococcus aureus, ATCC 29213, read-out: MIC100"}, "[7]": {"test_system": "Staphylococcus aureus", "assay": "Antimicrobial activity against Staphylococcus aureus ATCC 43300 assessed as inhibition of microbial growth incubated for 24 hrs by broth-microdilution assay", "details": "Staphylococcus aureus, ATCC 43300, read-out: MIC100"}, "[8]": {"test_system": "Klebsiella pneumoniae", "assay": "Antimicrobial activity against Klebsiella pneumoniae ATCC BAA1705 assessed as inhibition of microbial growth incubated for 24 hrs by broth-microdilution assay", "details": "read-out: MIC100"}, "[9]": {"test_system": "Staphylococcus epidermidis", "assay": "Antimicrobial activity against Staphylococcus epidermidis ATCC 35984 assessed as inhibition of microbial growth incubated for 24 hrs by broth-microdilution assay", "details": "Staphylococcus epidermidis, ATCC 35984, read-out: MIC100"}, "[10]": {"test_system": "Staphylococcus epidermidis", "assay": "Antimicrobial activity against Staphylococcus epidermidis ATCC 12228 assessed as inhibition of microbial growth incubated for 24 hrs by broth-microdilution assay", "details": "Staphylococcus epidermidis, ATCC 12228, read-out: MIC100"}}}
{"smiles": "NC[C@H]1O[C@H](O[C@H]2[C@H](O)[C@@H](O[C@H]3O[C@H](CO)[C@@H](O)[C@H](N)[C@H]3O)[C@H](N)C[C@@H]2N)[C@H](N)C[C@@H]1O", "note": "[TOBRAMYCIN]", "values": [{"measurement": "MIC", "setting": "[1]", "value": 2, "unit": "µg/mL"}, {"measurement": "MIC", "setting": "[2]", "value": 2, "unit": "µg/mL"}, {"measurement": "MIC", "setting": "[3]", "value": 2, "unit": "µg/mL"}]}
{"smiles": "C[C@@H](c1ncncc1F)[C@](O)(Cn1cncn1)c1ccc(F)cc1F", "note": "[VORICONAZOLE]", "values": [{"measurement": "MIC", "setting": "[4]", "value": "≤ 0.12", "unit": "µg/mL"}, {"measurement": "MIC", "setting": "[5]", "value": "≥ 1", "unit": "µg/mL"}]}
{"smiles": "CC1(C)CCC[C@]2(C)[C@H]3CC[C@@](C)(CC(=O)O)O[C@]3(C)CC[C@@H]12", "values": [{"measurement": "MIC", "setting": "[6]", "value": "> 128", "unit": "µg/mL"}, {"measurement": "MIC", "setting": "[1]", "value": "> 128", "unit": "µg/mL"}, {"measurement": "MIC", "setting": "[7]", "value": "> 128", "unit": "µg/mL"}, {"measurement": "MIC", "setting": "[2]", "value": "> 128", "unit": "µg/mL"}, {"measurement": "MIC", "setting": "[4]", "value": "> 128", "unit": "µg/mL"}, {"measurement": "MIC", "setting": "[8]", "value": "> 128", "unit": "µg/mL"}, {"measurement": "MIC", "setting": "[5]", "value": "> 128", "unit": "µg/mL"}, {"measurement": "MIC", "setting": "[3]", "value": "> 128", "unit": "µg/mL"}, {"measurement": "MIC", "setting": "[9]", "value": 128, "unit": "µg/mL"}, {"measurement": "MIC", "setting": "[10]", "value": 128, "unit": "µg/mL"}]}
